Experimental data reported in publication PMC10145360, “Antiplatelet Aggregation Properties of Cirsilineol: A Novel Inhibitor of Blood Coagulation Factor Xa” (Pharmaceuticals, 2023).
Values joined by “and” are separate entries in the source; they are usually repeats but may differ in a detail not shown here. Identical values can stand only once.

How the values were obtained:
Factor Xa = molecular target: T1, Factor Xa (Homo sapiens, UniProt P00742); assay: FXa amidolytic activity and inhibitory constant (chromogenic substrate); format: biochemical
T1 construct: Factor Xa; purchased Haematologic Technologies (Essex Junction, VT, USA)
Procedure: CSL was dissolved in 50 mM Tris buffer, which has a pH of 7.4, and was added to 150 μL of FXa solution (1 U/mL). This mixture was incubated for 1 min at 37 °C. Additionally, 150 μL of S-2222 solution (1.5 mM) was blended, and for 20 min, the changes in absorbance were observed spectrophotometrically at 405 nm. We used the slope of the curve (Vi) and the absorbance–time curve to determine enzyme activity. Equation (1) was used to compute the CSL inhibitory rates:Inhibitory rate (%) = (V0 − Vi)/V0 × 100(1) where Vi and V0 represent the slopes of the samples and the vehicle, respectively.
(§1) Ki values were calculated based on chromogenic substrate experiments. CSL was employed in each assay at a minimum of seven concentrations in duplicate to obtain an inhibition curve. A total of 50 μL of substrate was combined with 25 μL of each chemical solution, inhibitor solution, or blank buffer. Before the plate was allocated into the Labsystems IEMS microtiter plate reader (Cergy Pontoise, France), 25 μL of the enzyme solution was mixed. The plate was allowed for 1 h at 37 °C before analysis. We continuously observed the formation of p-nitroaniline produced when the substrate was hydrolyzed using spectrophotometry at 405 nm. The maximum initial reaction rates were computed as the millioptical density per minute. A Dixon plot of 1/Vmax versus inhibitor concentration was used to fit the curve and determine the Ki values.

[1] = test system: platelet-poor plasma (PPP); assay: Ex vivo aPTT clotting time after intravenous injection; format: in vivo, mouse; conditions: mice
Procedure: First, the potential cytotoxicity of […] on HUVECs was assessed using the 3-(4,5-dimethylthiazol-2-yl)-2,5-diphenyltetrazolium bromide (MTT) assay. […] The activated partial thromboplastin time (aPTT) and prothrombin time (PT), two coagulation parameters altered by CSL in vitro, were assessed first. We used the direct FXa inhibitor rivaroxaban as a positive control for our experiments. […] In the aPTT experiments, rivaroxaban at 8.38 μM and CSL at 7.23 μM, respectively, doubled the clotting time. Each mouse group (n = 5) received intravenous injections of CSL for 4 consecutive days to validate the in vitro results in an ex vivo experiment. […] In the ex vivo aPTT assays, treatment with CSL at 0.25 mg/kg and rivaroxaban at 0.29 mg/kg, respectively, doubled the clotting time. The average blood volume was determined to be 2 mL based on an estimated circulating blood volume for mice of 72 mL/kg and an average weight of 27 g for each animal used in this investigation. As a result, the estimated concentration of CSL in the peripheral blood after each injection ([…]) was 2.5, 5, 10, or 20 μM, respectively.
Figure 2 Effects of CSL on clotting time. (A) Platelet-poor plasma (PPP) was incubated with the indicated concentrations of CSL or rivaroxaban (Riva) for 15 min. (B) One hour after administering DMSO, CSL, or Riva, blood was collected from the mice, and PPP was obtained. Then, in vitro aPTT (A) or ex vivo aPTT was measured, as described in the Methods sections. Data are shown as mean values ± SD of five independent experiments. * p < 0.05 vs. D. D = 0.2% DMSO, used as the vehicle control.
Male C57BL/6 mice aged 7 weeks (mean weight: 27 g) were purchased from Orient Bio Co., in Sungnam, Republic of Korea, and were subjected to a 12-day acclimatization phase. […]
Plasma was taken by centrifuging blood (2000× g for 10 min) at room temperature following dimethyl sulfoxide (DMSO) or CSL administration for 1 h to assess PT and aPTT using a thrombotimer (Behnk Elektronik, Norderstedt, Germany). […] Next, the clotting time was measured.

[2] = test system: myristoylated alanine-rich C kinase substrate (MARCKS) in human platelets; assay: MARCKS phosphorylation (PKC activation), western blotting; format: cell-based; conditions: CSL 10 or 20 μM; ADP 10 μM or U46619 6 μM
Procedure: Figure 6 Effects of CSL on activation of protein kinase CPKC activation and mobilization of intracellular calcium. (A) Rinsed platelets were incubated with DMSO or CSL (10 or 20 μM) for 10 min at 37 °C, and stimulation of ADP (10 μM, left) or U46619 (6 μM, right) was given for 1 min. The phosphorylation level of MARCKS in the platelets was determined with western blotting. Representative images from each group are shown (n = 3). Densitometric intensities of each signaling pathway component normalized to β-actin or total protein. (B,C) Human platelets preloaded with Fura-2 were incubated with DMSO (D) or CSL with extracellular Ca^2+ (1 mM) for 10 min at 37 °C, and ADP ((B) 10 μM) or U46619 ((C) 6 μM) stimulation was given to induce an increase in [Ca^2+]i. Data are shown as mean values ± SD of five independent experiments. * p < 0.05 vs. ADP (A,B) or U46619 (A,C) alone. D = 0.2% DMSO, used as the vehicle control.
SDS-PAGE was used to isolate identical amounts of protein from the […] extracts, and the protein was then electrotransferred onto an immobilon membrane (Millipore, Billerica, MA, USA). The membranes underwent blocking, anti-phospho-MARCKS (Santa Cruz, CA, USA) incubation for 1.5 h at room temperature, HRP-conjugated secondary antibody incubation, and ECL detection. […]

Trypsin = assay: Inhibitory constant, chromogenic substrate assay; format: biochemical, human
Procedure: as §1

T1 sequence (P00742 235-488 limits assumed): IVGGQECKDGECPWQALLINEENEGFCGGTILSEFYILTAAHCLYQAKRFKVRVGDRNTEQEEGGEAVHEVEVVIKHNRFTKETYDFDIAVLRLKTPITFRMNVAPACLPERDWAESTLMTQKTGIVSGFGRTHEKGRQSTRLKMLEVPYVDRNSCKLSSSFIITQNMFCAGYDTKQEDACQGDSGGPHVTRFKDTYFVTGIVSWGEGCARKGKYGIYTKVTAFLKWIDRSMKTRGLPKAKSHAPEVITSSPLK
T1 sequence (P00742 41-179 partner limits assumed): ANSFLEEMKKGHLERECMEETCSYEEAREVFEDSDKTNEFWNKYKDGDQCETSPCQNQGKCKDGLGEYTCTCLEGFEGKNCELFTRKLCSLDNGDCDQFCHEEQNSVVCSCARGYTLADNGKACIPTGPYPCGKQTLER

Compound: COc1cc(-c2cc(=O)c3c(O)c(OC)c(OC)cc3o2)ccc1O [CSL, 4,5-dihydroxy-3,6,7-trimethoxyflavone]
- Km value of FXa on S-2222 (Factor Xa): increase
- Vmax of FXa on S-2222 (Factor Xa): decrease
- selectivity ratio (based on Ki values) for FXa compared to other enzymes examined (Factor Xa): > 300
- slope of Michaelis–Menten plot (Factor Xa; CSL 10 μM, FXa on S-2222): 0.568
- slope of Michaelis–Menten plot (Factor Xa; CSL 20 μM, FXa on S-2222): 0.759
- inhibitory pattern (Lineweaver–Burk plot) (Factor Xa; FXa on S-2222): mixed-type inhibitory pattern
- Ratio = Ki enzyme/Ki Factor Xa (Factor Xa; Factor Xa): 1
- Ki (Factor Xa; Factor Xa, chromogenic substrate S-2222, Dixon plot): 3.71 µM and 3.7 µM
- dose that doubled the clotting time (ex vivo aPTT) ([1]; intravenous): 0.25 mg/kg
- blood clotting time ex vivo (aPTT) ([1]; intravenous injections for 4 consecutive days): dramatically increased blood clotting time
- MARCKS phosphorylation in response to ADP and U46619 [2]: prevented MARCKS from becoming phosphorylated
- Ki (Trypsin): > 300 µM
- Ratio = Ki enzyme/Ki Factor Xa (Trypsin): >100
